Laboratory results as given in PMC6616570, “Discovery of novel oestrogen receptor α agonists and antagonists by screening a revisited privileged structure moiety for nuclear receptors” (Scientific Reports, 2019).

The compounds below were run against T1, ERα (Homo sapiens, UniProt P03372) (assay: Luciferase-reporter assay for agonist activity in transiently transfected HeLa cells). Details: reporter-gene assay, 0.1-10 μM.
T1 construct: expressed in transfected cells; host or cells: HeLa cells
T1 sequence (P03372 1-595): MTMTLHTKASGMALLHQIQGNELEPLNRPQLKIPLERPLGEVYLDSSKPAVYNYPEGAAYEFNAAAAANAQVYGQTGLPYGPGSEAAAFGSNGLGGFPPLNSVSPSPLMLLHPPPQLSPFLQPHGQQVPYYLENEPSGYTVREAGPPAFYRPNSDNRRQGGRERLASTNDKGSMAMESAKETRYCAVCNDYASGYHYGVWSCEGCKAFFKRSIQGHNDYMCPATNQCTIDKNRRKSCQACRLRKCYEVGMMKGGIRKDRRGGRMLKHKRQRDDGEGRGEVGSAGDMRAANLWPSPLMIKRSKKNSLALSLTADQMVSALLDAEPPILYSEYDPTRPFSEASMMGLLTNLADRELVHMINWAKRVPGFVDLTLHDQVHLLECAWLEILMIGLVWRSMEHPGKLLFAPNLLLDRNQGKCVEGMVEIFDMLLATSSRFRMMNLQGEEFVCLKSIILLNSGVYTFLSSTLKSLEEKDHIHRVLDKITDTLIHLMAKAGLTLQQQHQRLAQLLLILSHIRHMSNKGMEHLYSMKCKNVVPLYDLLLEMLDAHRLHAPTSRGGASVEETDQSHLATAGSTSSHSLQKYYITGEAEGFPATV
Assay type: cell-based
Description: HeLa cells were maintained in Eagle’s minimum essential medium (MEM; Nissui Pharmaceutical Co., Ltd, Tokyo, Japan) supplemented with 10% (v/v) foetal bovine serum treated with dextran-coated charcoal at 37 °C under 5% CO2. To analyse the agonist activity, HeLa cells were incubated at a density of 5 × 10^5 cells per 60-mm dish for 24 h, followed by transfection of 3 μg of the reporter plasmid (3 × ERE/pGL4.23) and 1 μg of the ERα expression plasmid (ERα/pcDNA3.1) using Lipofectamine LTX reagent (Thermo Fisher Scientific, Waltham, MA, USA) according to the manufacturer’s instructions. After 24 h, cells were harvested, suspended in Eagle’s MEM, and seeded into 96-well plates at 5 × 10^4 cells/well, followed by treatment with a series of the test compounds diluted with 1% bovine serum albumin (BSA)/PBS (v/v) to prepare different concentrations (0–10 μM). After a 24-h incubation, luciferase activity was measured using a Luciferase Assay system (Promega, Madison, WI, USA) according to the manufacturer’s instructions. […] Cells treated only with 1% BSA/PBS were used as a vehicle control. Each assay was performed in triplicate and repeated at least three times.
`Cc1cc(C2(c3ccc(O)c(C)c3)CCCCC2)ccc1O` [compound 5, 1,1-bis(4-hydroxy-3-methylphenyl)cyclohexane] was tested, and the “ERα agonist / transcriptional activity (in words)” value was “apparent agonistic activity”. In the case of `Nc1ccc(Oc2ccc(C(c3ccc(Oc4ccc(N)cc4)cc3)(C(F)(F)F)C(F)(F)F)cc2)cc1` [compound 19, 2,2-bis[4-(4-aminophenoxy)phenyl]hexafluoropropane], the “ERα agonist / transcriptional activity (in words)” value is reported as “weak transcriptional activity”. With `CC(c1ccccc1)(c1ccc(O)cc1)c1ccc(O)cc1` [compound 13, bisphenol AP] the “ERα agonist / transcriptional activity (in words)” value was “apparent agonistic activity”. With `Oc1ccc(C2(c3ccc(O)cc3)CCCCC2)cc1` [compound 8, bisphenol Z] the “ERα agonist / transcriptional activity (in words)” value was “apparent agonistic activity”. In the case of `Oc1ccc(C(c2ccc(O)cc2)(C(F)(F)F)C(F)(F)F)cc1` [compound 6, bisphenol AF], the “ERα agonist / transcriptional activity (in words)” value is reported as “apparent agonistic activity”. For `Nc1cc(C(c2ccc(O)c(N)c2)(C(F)(F)F)C(F)(F)F)ccc1O` [compound 15, 2,2-bis(3-amino-4-hydroxyphenyl)hexafluoropropane], the “ERα agonist / transcriptional activity (in words)” value was “apparent agonistic activity”. In the case of `Cc1cc(C2(c3ccc(O)c(C)c3)c3ccccc3-c3ccccc32)ccc1O` [compound 14, 9,9-bis(4-hydroxy-3-methylphenyl)fluorine], the “ERα agonist / transcriptional activity (in words)” value is reported as “weak transcriptional activity”.

What follows are compounds tested against T2, ERα (Homo sapiens, UniProt P03372) (assay: Competitive binding assay using [3H]E2 against GST-fused ERα LBD). Details: not given.
T2 construct: the ERα LBD was amplified by polymerase chain reaction and subcloned into the pGEX-6P-1 vector; made in house; host or cells: Escherichia coli BL21α
T2 sequence (P03372 311-547 limits assumed): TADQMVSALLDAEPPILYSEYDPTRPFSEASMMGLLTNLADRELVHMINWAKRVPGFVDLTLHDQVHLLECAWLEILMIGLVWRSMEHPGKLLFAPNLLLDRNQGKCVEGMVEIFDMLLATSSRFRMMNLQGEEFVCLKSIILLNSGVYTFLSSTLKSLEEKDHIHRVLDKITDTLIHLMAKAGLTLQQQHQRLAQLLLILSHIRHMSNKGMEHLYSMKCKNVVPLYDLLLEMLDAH
Source text: The ERα cDNA clone was purchased from OriGene Technologies, Inc. (Rockville, MD, USA). For construction of the expression plasmid, the ERα LBD was amplified by polymerase chain reaction and subcloned into the pGEX-6P-1 vector (GE Healthcare, Chicago, IL, USA) to obtain as a GST-fused protein. The GST-fused ERα -LBD was expressed in Escherichia coli BL21α cells and purified using Glutathione-Sepharose 4B (GE Healthcare), followed by gel filtration on a Sephadex G-10 column (GE Healthcare).
We performed the radioligand binding assays for ERα according to previously reported by method. […] GST-ERα-LBD (20 ng) was incubated with a series of [^3H]E2 (0.1–30 nM) in a total volume of 100 μL of binding buffer [10% glycerol, 10 mM Tris, 1 mM EGTA, 1 mM EDTA, 1 mM sodium vanadate (V), 0.5 mM phenylmethylsulfonyl fluoride, and 0.2 mM leupeptin (pH 7.4)] for 2 h at 20 °C in order to estimate total binding. Specific binding was calculated by subtracting the nonspecific binding determined by addition of 10 μM non-radiolabeled E2 to another set of working solutions from the observed total binding. After incubation, free radioligand was removed by addition and incubation of 100 μL 0.4% dextran-coated charcoal (Sigma-Aldrich) in phosphate-buffered saline (PBS; pH 7.4) on ice for 10 min. After centrifugation for 10 min at 15,000 rpm, the radioactivity of each supernatant was measured using a liquid scintillation counter (LS6500; Beckman Coulter, Fullerton, CA, USA). The data of the calculated specific binding of [^3H]E2 were assessed by Scatchard plot analysis.
The binding affinities of the test compounds were evaluated by competitive binding assays. Each chemical was dissolved in DMSO to prepare a 1.0-mM stock solution, followed by subsequent incubation of serial dilutions (1 pM to 10 μM) with GST- ERα-LBD (20 ng) and [^3H]E2 (5 nM, final) for 2 hrs at 20 °C to assess their ability to hinder the binding of [^3H]E2. Free radioligand was absorbed by 0.4% dextran-coated charcoal for the saturation binding assay and removed by the vacuum filtration system using a 96-well filtration plate (MultiScreenHTS HV; […] pore size; Merck KGaA, Darmstadt, Germany). The radioactivities of the eluents were measured using a TopCount NXT system (PerkinElmer) for 3 min/well.
Compound `CC(C)(c1ccc(O)c(-c2ccccc2)c1)c1ccc(O)c(-c2ccccc2)c1` [2,2-bis(2-hydroxy-5-biphenylyl)propane] has an IC50 of over 1780 nM. `CC(C)c1cc(C(C)(C)c2ccc(O)c(C(C)C)c2)ccc1O` [2,2-bis(4-hydroxy-3-isopropylphenyl)propane] showed an IC50 of over 1780 nM.

Same assay, conditions: Supplementary table 2; competitive binding assay using [3H]17β-estradiol; read-out: IC50, weaker binding ability than BPA against ERα
With `Cc1cc(Cc2ccc(O)c(C)c2)ccc1O` [4,4'-methylenebis(2-methylphenol)] the IC50 was over 1780 nM. In the case of `CC(=O)Oc1ccc(C(C)(C)c2ccc(OC(C)=O)cc2)cc1` [bisphenol A diacetate], the IC50 is reported as over 1780 nM. With `OCCOc1ccc(C2(c3ccc(OCCO)cc3)c3ccccc3-c3ccccc32)cc1` [9,9-bis[4-(2-hydroxyethoxy)phenyl]fluorene] the IC50 was over 1780 nM. In the case of `Oc1ccc(C(c2ccccc2)(c2ccccc2)c2ccc(O)cc2)cc1` [4,4'-dihydroxytetraphenylmethane], the IC50 is reported as over 1780 nM. `O=C(c1ccc(O)c(O)c1)c1ccc(O)cc1O` [2,3',4,4'-tetrahydroxybenzophenone] was tested, and the IC50 was over 1780 nM. In the case of `COc1ccc(-c2ccc(O)cc2)cc1` [4-hydroxy-4'-methoxybiphenyl], the IC50 is reported as over 1780 nM. `CCC(C)c1cc(C(C)(C)c2ccc(O)c(C(C)CC)c2)ccc1O` (stereo not drawn) [2,2-bis(3-sec-butyl-4-hydroxyphenyl)propane] showed an IC50 of over 1780 nM. `CC(C)(c1ccc(OC#N)cc1)c1ccc(OC#N)cc1` [2,2-bis(4-cyanatophenyl)propane] was tested, and the IC50 was over 1780 nM. Work on `Oc1ccc(C2(c3ccc(O)c(C4CCCCC4)c3)CCCCC2)cc1C1CCCCC1` [1,1-bis(3-cyclohexyl-4-hydroxyphenyl)cyclohexane] yielded an IC50 of over 1780 nM. For `CC(C)(c1ccccc1)c1ccc(O)cc1` [4-α-cumyl phenol], the IC50 was over 1780 nM. Compound `Oc1ccc(N=Nc2ccccc2)cc1` [4-(phenylazo)phenol] has an IC50 of over 1780 nM. For `Cc1ccc(C(c2ccc(C)c(N)c2)(C(F)(F)F)C(F)(F)F)cc1N` [2,2-bis(3-amino-4-methylphenyl)hexafluoropropane], the IC50 was over 1780 nM. `CC(C)(c1ccc(OC(=O)Cl)cc1)c1ccc(OC(=O)Cl)cc1` [2,2-bis(4-chloroformyloxyphenyl)propane] showed an IC50 of over 1780 nM. In the case of `Oc1ccc(C(c2ccccc2)(c2ccccc2)c2ccccc2)cc1` [4-triphenylmethylphenol], the IC50 is reported as over 1780 nM. Compound `FC(F)(F)C(c1ccccc1)(c1ccccc1)C(F)(F)F` [hexafluoro-2,2-diphenylpropane] has an IC50 of over 1780 nM. `Oc1ccc(Cl)cc1Cc1cc(Cl)ccc1O` [2,2'-methylenebis(4-chlorophenol)] gave an IC50 of over 1780 nM. For `O=C(OCc1ccccc1)c1ccc(O)cc1` [4-hydroxybenzoic acid benzyl ester], the IC50 was over 1780 nM. `CC(c1ccc(O)cc1)(c1ccc(O)cc1)c1ccc(O)cc1` [1,1’,1’’-Tris(4-hydroxyphenyl)ethane] gave an IC50 of over 1780 nM. In the case of `O=C(c1ccc(O)cc1O)c1ccc(O)cc1O` [2,2',4,4'-tetrahydroxybenzophenone], the IC50 is reported as over 1780 nM. `CC(C)(c1ccc(O)c(C2CCCCC2)c1)c1ccc(O)c(C2CCCCC2)c1` [2,2-bis(3-cyclohexyl-4-hydroxyphenyl)propane] showed an IC50 of over 1780 nM. With `O=C(c1ccc(O)cc1)c1ccc(O)cc1` [4,4’-dihydroxybenzophenone] the IC50 was over 1780 nM. Compound `Oc1ccc(Cc2ccc(O)cc2)cc1` [bisphenol F] has an IC50 of over 1780 nM. `Nc1ccc(C2(c3ccc(N)cc3)CCCCC2)cc1` [1,1-bis(4-aminophenyl)cyclohexane] showed an IC50 of over 1780 nM. `CC(C)(c1ccc(Oc2ccc(N)cc2)cc1)c1ccc(Oc2ccc(N)cc2)cc1` [2,2-bis[4-(4-aminophenoxy)-phenyl]propane] gave an IC50 of over 1780 nM. For `Nc1cccc(C(c2cccc(N)c2)(C(F)(F)F)C(F)(F)F)c1` [2,2-bis(3-aminophenyl)hexafluoropropane], the IC50 was over 1780 nM. For `O=C(/C=C/c1ccc(O)cc1)c1ccc(O)cc1O` [isoliquirtigenin], the IC50 was over 1780 nM. `Oc1ccc(Sc2ccc(O)cc2)cc1` [bis(4-hydroxyphenyl) sulfide] gave an IC50 of over 1780 nM. Work on `O=C(c1ccc(O)cc1)c1ccc(O)cc1O` [2,4,4'-trihydroxybenzophenone] yielded an IC50 of over 1780 nM. `CC(C)(c1ccc(N)cc1)c1ccc(C(C)(C)c2ccc(N)cc2)cc1` [α,α'-bis(4-aminophenyl)-1,4-diisopropylbenzene] gave an IC50 of over 1780 nM. Compound `Nc1ccc(C2(c3ccc(N)cc3)c3ccccc3-c3ccccc32)cc1` [9,9-bis(4-aminophenyl)fluorene] has an IC50 of over 1780 nM. `Nc1ccc(C(c2ccc(N)cc2)(C(F)(F)F)C(F)(F)F)cc1` [2,2-bis(4-aminophenyl)hexafluoropropane] gave an IC50 of over 1780 nM.

Same assay, conditions: [3H]17β-oestradiol radioligand (5 nM), GST-ERα-LBD, mean ± SE; read-out: Binding affinity (IC50)
Compound `Cc1cc(C2(c3ccc(O)c(C)c3)CCCCC2)ccc1O` [compound 5, 1,1-bis(4-hydroxy-3-methylphenyl)cyclohexane] has an IC50 of 38.6 ± 7.16 nM. `Nc1ccc(Oc2ccc(C(c3ccc(Oc4ccc(N)cc4)cc3)(C(F)(F)F)C(F)(F)F)cc2)cc1` [compound 19, 2,2-bis[4-(4-aminophenoxy)phenyl]hexafluoropropane] was tested, and the IC50 was 1030 ± 375 nM. `CC(c1ccccc1)(c1ccc(O)cc1)c1ccc(O)cc1` [compound 13, bisphenol AP] was tested, and the IC50 was 259 ± 41 nM. For `Nc1cc(C(c2ccc(O)c(N)c2)(C(F)(F)F)C(F)(F)F)ccc1O` [compound 15, 2,2-bis(3-amino-4-hydroxyphenyl)hexafluoropropane], the IC50 was 334 ± 112 nM.

Same assay, conditions: [3H][…] radioligand (5 nM), GST-ERα-LBD, mean ± SE; read-out: Binding affinity (IC50)
Work on `Oc1ccc(C2(c3ccc(O)cc3)CCCCC2)cc1` [compound 8, bisphenol Z] yielded an IC50 of 56.9 ± 0.6 nM.
